Source: patent publication US20260015322A1, “DELIVERY OF THERAPEUTIC ALKALOID COMPOUNDS” (priority 2022, published 2026)
Like-named read-outs stand apart in the source and are kept apart here.

What was measured:
[1] = Hydrolysis Assay - Condition 1 (SGF); type: physicochemical; conditions: Condition 1: SGF with pepsin pH 1.5, 37° C., 0.5 mM
Procedure: 50 uL of compound (10 mM) in DMSO was diluted into 950 uL of Simulated Gastric Fluid (SGF) with pepsin (pH 1.5) to a final concentration of 0.5 mM. The hydrolysis kinetics were conducted at 37° C. and measured by LCMS at a certain time interval.
(§1) The corresponding LCMS chromatogram were recorded and the conversions were calculated by integration of each peak.
(§2) • 1) LCMS spectra were obtained using Agilent 1200G1956A or SHIMADZU LCMS-2020. • Standard LCMS conditions were as follows (running time 1.55 minutes): • Acidic condition: Mobile Phase A: 0.0375% TFA in water (v/v). Mobile Phase B: 0.01875% TFA in acetonitrile (v/v); Column: Kinetex EVO C18 30*2.1 mm, 5 μm. • Basic condition: Mobile Phase A: 0.025% NH3·H2O in water (v/v). Mobile Phase B: Acetonitrile; Column: Kinetex EVO C18 2.1×30 mm, 5 μm. • 2) Conversion (%)=peak area 1/(peak area 1+peak area 2)*100%, peak area 1 is the integration of hydrolyzed product, peak area 2 is the integration of starting material.

[2] = Hydrolysis Assay - Condition 2 (DI Water); type: physicochemical; conditions: 25° C., 0.5 mM
Procedure: 50 uL of compound (10 mM) in DMSO was diluted into 950 uL of DI water to a final concentration of 0.5 mM. The hydrolysis kinetics were conducted at 25° C. and measured by LCMS at a certain time interval.
as §1, §2

[3] = Plasma Stability Assay (Example A2), mouse plasma; type: in vitro ADME; conditions: Mouse Plasma, 37° C., prodrug remaining
Procedure: (§3) Each test was carried out in duplicate for each time point; 0 min, 15 min, 30 min, 60 min, 120, 240 min. […]

[4] = Plasma Stability Assay (Example A2), human plasma; type: in vitro ADME; conditions: 37° C., prodrug remaining
Procedure: as §3

[5] = Plasma Stability Assay (Example A3), rat plasma; type: in vitro ADME; conditions: 10 μM, 37° C., prodrug remaining
Text: (§4) The data is represented in the table below.

[6] = Plasma Stability Assay (Example A3), human plasma; type: in vitro ADME; conditions: 10 μM, 37° C., prodrug remaining
Text: as §4

[7] = Metabolic Stability in Human Hepatocytes; type: in vitro ADME; conditions: cryopreserved human hepatocytes, 5×10^5 viable cells/mL, 37° C.
Procedure: A 2.5 uL aliquot of 100 μM test compound was incubated with 247.5 uL of cryopreserved hepatocytes suspended in serum-free incubation medium at 5×10^5 viable cells/mL. The mixture was incubated at 37° C. and shaken at 500 rpm for the designated time points (0.5, 15, 30, 60, 90, or 120 min). At each time point, 25 μL aliquot of incubation mixture was transferred to 125 μL of cold acetonitrile containing internal standard, followed by centrifugation for 30 min at 3,220 g. 100 μL of supernatant was mixed with 100 μL of distilled water for analysis by LC-MS/MS. Peak areas were determined from extracted ion chromatograms and in vitro half-life (t1/2) was determined from the concentration vs time regression slope, in vitro t1/2=0.693/k. Conversion of the in vitro t1/2 (in min) into the in vitro intrinsic clearance (in vitro CLint, in μL/min/10^6 cells) is done using: in vitro CLint=kV/N.

[8] = in vivo; type: in vivo, male C57BL/6 mice; conditions: 321 IV 2 mg/kg, mice
Procedure: Total fifteen male mice were used in this study with n=3 mice/time point with sparse sampling study design. Animals were administered through intravenous route with solution formulation of 321 at 2 mg/kg dose.
The extraction procedure for plasma/brain samples and the spiked plasma/brain calibration standards were identical (PMSF Stabilized Plasma and Brain used for Preparation of calibration standards): A 20 μL of study sample plasma/brain or spiked plasma/brain calibration standard was added to individual pre-labeled micro-centrifuge tubes followed by 200 μL of internal standard prepared in acetonitrile (Rosuvastatin, 50 ng/mL) was added except for blank, where 200 μL of acetonitrile was added. Samples were vortexed for 5 minutes. Samples were centrifuged for 10 minutes at a speed of 4000 rpm at 4° C. Following centrifugation, 200 μL of clear supernatant was transferred in 96 well plates and analyzed using LC-MS/MS.
Brain samples were diluted (1-part of tissue: 2-part of buffer) and homogenized. The homogenate was submitted for bioanalysis and the concentrations (ng/mL) received were corrected with dilution factor (3×) and the final reported concentrations were represented in ng/g.
The plasma and brain concentration-time data of 321 and 001 were used for the pharmacokinetic analysis.

[9] = male, C57BL/6, mouse, in vivo, 321, read-out: Brain concentrations (mean)
[10] = male, C57BL/6, mouse, in vivo, 321, read-out: Plasma concentrations (mean)

COc1ccc([C@@]23CCC(OP(=O)(OC(C)C)OC(C)C)=C[C@@H]2N(C)CC3)cc1OC [Compound 321, [(3aS,7aS)-3a-(3,4-dimethoxyphenyl)-1-methyl-3,4,5,7a-tetrahydro-2H-indol-6-yl]diisopropyl phosphate]
Conversion (%) ([1]; 1 min): 0%
Conversion (%) ([1]; 5 min): 0%
Conversion (%) ([1]; 30 min): 0%
Conversion (%) ([1]; 1 h): 0%
Conversion (%) ([1]; 4 h): 0%
Conversion (%) ([1]; 24 h): 0%
Conversion (%) ([2]; 1 min): 0%
Conversion (%) ([2]; 5 min): 0%
Conversion (%) ([2]; 30 min): 0%
Conversion (%) ([2]; 1 h): 0%
Conversion (%) ([2]; 4 h): 0%
Conversion (%) ([2]; 24 h): 0%
Prodrug (%) ([3]; 0 min): 100%
Prodrug (%) ([3]; 15 min): 77.3%
Prodrug (%) ([3]; 30 min): 74.5%
Prodrug (%) ([3]; 60 min): 58.4%
Prodrug (%) ([3]; 120 min): 43.1%
Prodrug (%) ([3]; 240 min): 31.7%
Prodrug (%) ([4]; 0 min): 100%
Prodrug (%) ([4]; 15 min): >99%
Prodrug (%) ([4]; 30 min): >99%
Prodrug (%) ([4]; 60 min): >99%
Prodrug (%) ([4]; 120 min): >99%
Prodrug (%) ([4]; 240 min): 78.2%
Prodrug (%) ([5]; 0 min): 100.0%
Prodrug (%) ([5]; 10 min): 74.0%
Prodrug (%) ([5]; 30 min): 69.8%
Prodrug (%) ([5]; 60 min): 69.2%
Prodrug (%) ([5]; 120 min): 68.4%
Prodrug (%) ([5]; 240 min): 65.7%
Prodrug (%) ([6]; 0 min): 100.0%
Prodrug (%) ([6]; 10 min): >99%
Prodrug (%) ([6]; 30 min): >99%
Prodrug (%) ([6]; 60 min): 98.1%
Prodrug (%) ([6]; 120 min): 94.5%
Prodrug (%) ([6]; 240 min): 96.3%
t1/2 [7]: 23 min
Brain-Kp [8]; 321: 0.28
brain concentrations quantifiable up to [8]; 321: ≤ 0.5 h
plasma concentrations quantifiable up to [8]; 321: up to 2 h
T1/2 ([8]; 321 in Brain): 6.6 min
Vss ([8]; 321 in Brain): 10.34 L/kg
CL ([8]; 321 in Brain, marked NR (not reportable)): NR (1154.07) mL/min/kg
AUClast ([8]; 321 in Plasma): 97.14 ng·h/mL
C0 (back extrapolated concentration) ([8]; 321 in Plasma): 503.64 ng/mL
CL ([8]; 321 in Plasma): 340.73 mL/min/kg
T1/2 ([8]; 321 in Plasma): 21.6 min
Vss ([8]; 321 in Plasma): 4.80 L/kg
concentration at 0.08 h [8, 9]: 99.6 ng/g
concentration at 0.08 h [8, 10]: 305 ng/mL
concentration at 0.25 h [8, 9]: 37.1 ng/g
concentration at 0.25 h [8, 10]: 105 ng/mL
concentration at 0.5 h [8, 9]: 7.89 ng/g
concentration at 0.5 h [8, 10]: 26.2 ng/mL
concentration at 1 h ([8]; male, C57BL/6, mouse, in vivo, 321, 1 h, read-out: Plasma concentrations (mean)): 8.57 ng/mL
concentration at 2 h ([8]; male, C57BL/6, mouse, in vivo, 321, 2 h, average of two values, read-out: Plasma concentrations (mean)): 1.38 ng/mL
